From PubChem BioAssay (NCI)
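Five concentrations, 48 hours, 96-well plates. GI50: concentration for 50% inhibition of growth. TGI is the concentration that stops growth completely.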

How the values were obtained:
Assay in all cases: growth of human tumour cells (NCI), 48 h
[1] = tested on: SK-MEL-2 melanoma
[2] = tested on: RXF 393 renal
[3] = tested on: CAKI-1 renal
[4] = tested on: U251 CNS
[5] = tested on: SR leukemia
[6] = tested on: SNB-19 CNS
[7] = tested on: IGROV1 ovarian
[8] = tested on: K-562 leukemia
[9] = tested on: MDA-MB-231 breast
[10] = tested on: PC-3 prostate

SMILES | TGI [1] [µM] | TGI [2] [µM] | TGI [3] [µM] | TGI [4] [µM] | TGI [5] [µM] | TGI [6] [µM] | TGI [7] [µM] | TGI [8] [µM] | GI50 [1] [µM] | GI50 [3] [µM] | GI50 [4] [µM] | GI50 [9] [µM] | TGI [9] [µM] | GI50 [10] [µM] | TGI [10] [µM] | GI50 [6] [µM] | GI50 [7] [µM] | GI50 [8] [µM] | GI50 [2] [µM]
COc1cc(/C=C2\NC(=O)C(Cc3cc(OC)c(OC)c(C)c3OC)N(C(C)=O)C2=O)c(OC)c(C)c1OC (stereo not drawn) | > 100 | > 100 | > 100 | > 100 | > 100 | > 100 | > 100 | > 100 |  |  |  |  |  |  |  |  |  |  | 
O=NN(CCCl)C(=O)NC1CCC(CC(=O)O)CC1 (stereo not drawn) | > 100 | > 100 | > 100 | > 100 | > 100 | > 100 | > 100 | > 100 |  |  |  |  |  |  |  |  |  |  | 
CC(=O)Oc1c(C(=O)[O-])cc(C(C)C)cc1C(C)C.CC(=O)Oc1c(C(=O)[O-])cc(C(C)C)cc1C(C)C.CC(=O)Oc1c(C(=O)[O-])cc(C(C)C)cc1C(C)C.CC(=O)Oc1c(C(=O)[O-])cc(C(C)C)cc1C(C)C.[Cu+2].[Cu+2] | > 100 |  | > 100 | 51.5 |  | 61.7 | > 100 |  | 40.8 | > 100 | 19.9 | 33.9 | > 100 | 57.3 | > 100 | 26.3 | 30.4 |  | 
COc1ccc(-c2nc3ccc(Cc4ccc5nc(-c6ccc(OC)cc6)[nH]c5c4)cc3[nH]2)cc1 | 1.75 |  | 1.84 | 0.162 |  | 5.8 | 2.26 | 0.159 | 0.0404 | 0.0509 | 0.028 | 0.0476 | 0.586 | 0.0428 | 1.2 | 0.0469 | 0.0445 | < 0.01 | 
CCc1ccc(Nc2cc(C)c3ccc(O)cc3n2)cc1 | 23.6 | 17.1 | 19 | 22.5 |  | 32.1 | 20.8 | 15.4 | 9.97 | 4.92 | 6.84 | 3.12 | 13.7 | 4.79 | 18.5 | 13 | 6.14 | 3.2 | 4.08
O=C1C2C3C=CC(C2C(=O)N1CO)C1C2C(=O)N(CO)C(=O)C2C31 (stereo not drawn) | > 100 | > 100 | > 100 | > 100 | 45 | > 100 | > 100 | > 82.5 |  |  |  |  |  |  |  |  |  |  | 
CC(=O)[CH-]C(=O)c1ccccc1.[C-]#[O+].[C-]#[O+].[Ir] | > 100 | > 100 | > 100 | > 100 |  | > 100 | > 100 |  | > 100 | > 100 | > 100 |  |  |  |  | > 100 | > 100 |  | > 100
COc1ccc(Nc2cnc3cc(N)cc(N)c3n2)cc1 | 32 | 39.6 | 64.9 | 35.5 |  | > 100 | 37.7 | > 100 | 14.4 | 23 | 14.9 | 10.5 | 26.2 | 14.7 | 27.9 | 32.8 | 17.6 | 5.69 | 17.6
O=C1N[C@@H]2CCCC[C@@H]2C12CCCCC2 |  | > 100 |  | > 100 | > 100 | > 100 | > 100 | > 100 |  |  |  |  |  |  |  |  |  |  | 
